From ChEMBL document CHEMBL4339254, “Lamellarin Sulfates from the Pacific Tunicate Didemnum ternerratum” (J Nat Prod, 2019) come the findings set out here.

The test system of the first experiment is HCT-116. The experiment in a line: Cytotoxicity in human HCT116 cells assessed as reduction in cell viability incubated for 48 hrs by MTS assay. In kind it is functional, cell-based. Particulars: Homo sapiens, HCT-116, 48 h; read-out: IC50. (Tetrazolium dyes change colour on reduction, which living cells bring about.)
The IC50 is the midpoint of a concentration-inhibition curve. On to `COc1cc(-c2c3n(c4c(=O)oc5cc(O)c(OC)cc5c24)CCc2c-3cc(OC)c(OC)c2O)ccc1O`, for which the concentration for half-maximal inhibition (IC50) stood at 4.3 µM.

As for `COc1cc(-c2c3c4cc(OC)c(O)cc4oc(=O)c3n3ccc4cc(OS(=O)(=O)O)c(OC)cc4c23)ccc1O`, the IC50 is 9.7 µM.

Still in this experiment, the particulars now being: hct-116.
Consider `COc1cc(-c2c3c4cc(OC)c(OS(=O)(=O)O)cc4oc(=O)c3n3ccc4cc(OC)c(OC)cc4c23)ccc1O`, for which the IC50 entry is reported as “Not Active”.

Take `COc1ccc(-c2c3n(c4c(=O)oc5cc(OS(=O)(=O)O)c(OC)cc5c24)CCc2c-3cc(OC)c(OC)c2O)cc1O`: the IC50 result is “Not Active”.

`COc1cc(-c2c3n(c4c(=O)oc5cc(OS(=O)(=O)O)c(OC)cc5c24)CCc2c-3cc(OC)c(OC)c2O)ccc1O`: the IC50 result is on record as “Not Active”.

For `COc1ccc(-c2c3n(c4c(=O)oc5cc(OS(=O)(=O)O)c(O)cc5c24)CCc2cc(OC)c(O)cc2-3)cc1O`, the concentration for half-maximal inhibition (IC50) result is given as “Not Active”.

On to `COc1cc(-c2c3n(c4c(=O)oc5cc(OS(=O)(=O)O)c(OC)cc5c24)CCc2cc(OC)c(OC)cc2-3)ccc1O`, for which the IC50 result is “Not Active”.
